The source of these data is patent US7799775B2, “Pyrimidine derivatives” (ASKA Pharmaceutical Co., Ltd., priority 2004, dated 2010).

In one assay the target is T1, human 5-HT1A receptor (Homo sapiens, UniProt P08908).
T1 construct: purchased Packard Bioscience; host or cells: CHO cells (membrane preparation)
T1 sequence (P08908 1-422): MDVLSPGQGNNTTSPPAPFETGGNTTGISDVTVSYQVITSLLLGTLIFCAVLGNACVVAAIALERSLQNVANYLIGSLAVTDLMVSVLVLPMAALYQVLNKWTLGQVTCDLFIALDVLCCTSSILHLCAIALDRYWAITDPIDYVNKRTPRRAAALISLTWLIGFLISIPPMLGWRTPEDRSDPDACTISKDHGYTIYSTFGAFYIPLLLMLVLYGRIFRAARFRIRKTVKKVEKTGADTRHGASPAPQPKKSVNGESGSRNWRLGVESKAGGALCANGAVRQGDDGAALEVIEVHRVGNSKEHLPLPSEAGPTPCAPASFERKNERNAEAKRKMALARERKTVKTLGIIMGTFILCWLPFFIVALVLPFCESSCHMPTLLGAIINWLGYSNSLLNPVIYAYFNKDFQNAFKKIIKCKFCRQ
The experiment in a line: Affinity measurement of the compounds to human 5-HT1A receptor (in vitro), [3H]8-OH-DPAT binding. As to conditions: test compound 100 nmols/L; [3H]8-OH-DPAT 0.25 nmols/L; CHO cell membrane expressing human 5-HT1A receptor; read-out: Percent Inhibition (%) on Each Receptor's Binding at 10^−7M, 5-HT1A. The essentials:
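Membranes from CHO cells expressing human 5-HT1A were incubated 60 min at 27 °C with 0.25 nmol/L [3H]8-OH-DPAT and compound in Tris/MgSO4/EDTA/ascorbate buffer, pH 7.4. Bound radioactivity was collected on PEI-soaked GF/C filters and counted; percent inhibition was corrected for non-specific binding defined with 10 μmol/L 8-OH-DPAT.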

Another assay addresses T2, human 5-HT3 receptor (Homo sapiens, UniProt P46098).
T2 construct: purchased BIOLINKS K.K; host or cells: HEK-293 cells (membrane preparation)
T2 sequence (P46098 24-478): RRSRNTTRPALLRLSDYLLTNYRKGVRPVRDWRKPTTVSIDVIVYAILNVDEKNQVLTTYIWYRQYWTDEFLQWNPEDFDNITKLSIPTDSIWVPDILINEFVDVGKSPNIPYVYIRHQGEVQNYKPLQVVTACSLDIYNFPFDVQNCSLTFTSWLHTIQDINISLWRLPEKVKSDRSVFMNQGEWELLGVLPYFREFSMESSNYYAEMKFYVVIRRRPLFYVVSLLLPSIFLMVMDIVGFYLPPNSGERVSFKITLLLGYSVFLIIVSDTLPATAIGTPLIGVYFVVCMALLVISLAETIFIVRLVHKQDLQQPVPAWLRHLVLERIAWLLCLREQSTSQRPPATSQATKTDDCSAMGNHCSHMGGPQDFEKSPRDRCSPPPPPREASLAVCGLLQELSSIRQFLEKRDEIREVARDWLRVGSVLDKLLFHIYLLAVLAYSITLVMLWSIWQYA
Briefly: Measurement of affinity to human 5-HT3 receptor (in vitro), [3H]BRL-43694 binding. As to conditions: test compound 100 nmols/L; [3H]BRL-43694 0.5 nmols/L; HEK-293 cell membrane expressing human 5-HT3 receptor; read-out: Percent Inhibition (%) on Each Receptor's Binding at 10^−7M, 5-HT3. The procedure, abridged:
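Membranes from HEK-293 cells expressing the receptor were incubated with 0.5 nmol/L radioligand and compound for 60 min at 25 °C in Tris/MgCl2/EDTA buffer, pH 7.5. Bound radioactivity was collected by filtration and counted. Percent inhibition was corrected for non-specific binding defined with 10 μmol/L tropisetron; compounds were tested at 100 nmol/L.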

Where a name gives a salt, the structure may show the parent alone.

Broadly, the inhibition is the drop in the measured response relative to a control, in per cent. `Cn1c(CCCCN2CCN(c3ccc4ccccc4n3)CC2)nc2ccc(Cl)cc2c1=O` [Example 7-25, 6-chloro-3-methyl-2-[4-(4-quinolin-2-ylpiperazin-1-yl)butyl]-3H-quinazolin-4-one]: the inhibition at 0.1 µM on human 5-HT1A receptor came to 97.5%; on human 5-HT3 receptor, 99.7%.
For the compound `Cn1c(CCCCN2CCN(c3ccc4ccccc4n3)CC2)nc2ccc(Br)cc2c1=O` [Example 7-26, 6-bromo-3-methyl-2-[4-(4-quinolin-2-ylpiperazin-1-yl)butyl]-3H-quinazolin-4-one], the results for the inhibition at 0.1 µM at human 5-HT1A receptor and at human 5-HT3 receptor were 85.2% and 71.6%, respectively.
Regarding `Cn1c(SCCCN2CCN(c3ccc4ccccc4n3)CC2)nc2c(c1=O)CCCC2` [Example 7-27], the inhibition at 0.1 µM on human 5-HT1A receptor worked out at 87%; on human 5-HT3 receptor, 90.2%.
Taken in the same sequence, the figures for `Cn1c(SCCCN2CCN(c3ccc4ccccc4n3)CC2)nc2ccccc2c1=O` [Example 7-28] were 74.7% and 87.3%.
Taken in the same sequence, the figures for `Cn1c(NCCCN2CCN(c3ccc4ccccc4n3)CC2)nc2c(c1=O)CCCC2` [Example 7-29, 3-methyl-2-[3-(4-quinolin-2-ylpiperazin-1-yl)propylamino]-5,6,7,8-tetrahydro-3H-quinazolin-4-one] were 80.8% and 93.6%.
`Cn1c(NCCCN2CCN(c3ccc4ccccc4n3)CC2)nc2ccccc2c1=O` [Example 7-30, 3-methyl-2-[3-(4-quinolin-2-ylpiperazin-1-yl)propylamine]-3H-quinazolin-4-one]: the inhibition at 0.1 µM on human 5-HT1A receptor worked out at 73.5%; at human 5-HT3 receptor, 92.4%.
Taken in the same sequence, the figures for `c1cc2ccoc2c(N2CCNCC2)n1` [Production Example 1, 7-piperazin-1-ylfuro[2,3-c]pyridine] were 86.7% and 80.8%.
As to `CN1CCN(c2nccc3sc(Br)cc23)CC1` [Production Example 10, 2-bromo-4-(methylpiperazin-1-yl)thieno[3,2-c]pyridine], the inhibition at 0.1 µM was 98.5% on human 5-HT1A receptor and 73.8% at human 5-HT3 receptor.
In the case of `CN1CCN(c2nc(Cl)cc3ccccc23)CC1` [Production Example 16, 3-chloro-1-(4-methylpiperazin-1-yl)isoquinoline dihydrochloride], the inhibition at 0.1 µM at human 5-HT1A receptor was 61.1%; at human 5-HT3 receptor it was 99.2%.
Taken in the same sequence, the figures for `CCN1CCN(c2nccc3ccsc23)CC1` [Production Example 17, 7-(4-ethylpiperazin-1-yl)-thieno[2,3-c]pyridine] were 83.6% and 82.9%.
Consider `CN1CCN(c2nccc3cccnc23)CC1` [Production Example 23, 8-(4-methylpiperazin-1yl)[1,7]naphthyridine], for which the inhibition at 0.1 µM on human 5-HT1A receptor is 83.2%; on human 5-HT3 receptor, 85.8%.
Taken in the same sequence, the figures for `Cc1cc2c(N3CCNCC3)nccc2o1` [Production Example 25, 2-methylpiperazin-1-ylfuro[3,2-c]pyridine] were 83.2% and 65.5%.
`COc1ccc2c(C)cnc(N3CCNCC3)c2c1` [Production Example 28, 7-methoxy-4-methyl-1-piperazin-1-ylisoquinoline]: the inhibition at 0.1 µM on human 5-HT1A receptor was determined as 23.9%; on human 5-HT3 receptor, 92.5%.
On to `Brc1ccc2ccnc(N3CCNCC3)c2c1` [Production Example 30, 7-bromo-1-piperazin-1-ylisoquinoline], for which the figures for the inhibition at 0.1 µM at human 5-HT1A receptor and at human 5-HT3 receptor were 92.8% and 93.4%, respectively.
Take `COc1ccc2ccnc(N3CCN(C)CC3)c2c1` [Production Example 32, 7-methoxy-1-(4-methylpiperazin-1-yl)isoquinoline]: the inhibition at 0.1 µM on human 5-HT1A receptor was 91.7%; at human 5-HT3 receptor, 94.4%.
For the compound `CCN1CCN(c2nccc3ccccc23)CC1` [Production Example 37, 1-(4-ethylpiperazin-1-yl)isoquinoline], the inhibition at 0.1 µM is 57.3% at human 5-HT1A receptor and 70.2% at human 5-HT3 receptor.
Turning to `COc1ccc2c(N3CCNCC3)nccc2c1` [Production Example 40, 6-methoxy-1-piperazin-1-ylisoquinoline], the inhibition at 0.1 µM was found to be 42.9% at human 5-HT1A receptor and 99.3% at human 5-HT3 receptor.
As to `CN1CCN(c2nccc3ccc(F)cc23)CC1` [Production Example 52, 7-fluoro-1-(4-methylpiperazin-1-yl)isoquinoline], the inhibition at 0.1 µM on human 5-HT1A receptor came out at 84.1%; at human 5-HT3 receptor, 97%.
Taken in the same sequence, the figures for `Clc1ccc2c(N3CCNCC3)nccc2c1` [Production Example 57, 6-chloro-1-piperazin-1-ylisoquinoline] were 88.9% and 96.5%.
As to `CN1CCN(c2nccc3c(Cl)cccc23)CC1` [Production Example 61, 5-chloro-1-(4-methylpiperazin-1-yl)isoquinoline], the values for the inhibition at 0.1 µM on human 5-HT1A receptor and on human 5-HT3 receptor were 25.3% and 94.1%, respectively.
Taken in the same sequence, the figures for `Fc1ccc2ccnc(N3CCNCC3)c2c1` [Production Example 63, 7-fluoro-1-piperazin-1-ylisoquinoline] were 80.4% and 96.8%.
Taken in the same sequence, the figures for `COc1ccc2ccnc(N3CCN(Cc4ccc5c(c4)OCO5)CC3)c2c1` [Production Example 71, 1-(4-benzo[1,3]dioxol-5-ylmethylpiperazin-1-yl)-7-methoxyisoquinoline] were 94.8% and 42.2%.
Taken in the same sequence, the figures for `c1cnc2c(N3CCN4CCC[C@H]4C3)nccc2c1` [Production Example 74, 8-((8aS)-octahydropyrrolo[1,2-a]pyrazin-2-yl)-1,7-naphthyridine] were 94.6% and 98.9%.
As for `Clc1ccc2ccnc(N3CCN4CCC[C@@H]4C3)c2c1` [Production Example 76, 7-chloro-1-((8aR)-octahydropyrrolo[1,2-a]pyrazin-2-yl)isoquinoline], the inhibition at 0.1 µM on human 5-HT1A receptor amounted to 96.6%; at human 5-HT3 receptor, 94.4%.
Consider `COc1ccc2ccnc(N3CCN4CCC[C@@H]4C3)c2c1` [Production Example 77, 1-((8aR)-octahydropyrrolo[1,2-a]pyrazin-2-yl)-7-methoxyisoquinoline], for which the figures for the inhibition at 0.1 µM on human 5-HT1A receptor and at human 5-HT3 receptor were 98.9% and 97.9%, respectively.
Consider `COc1ccc2ccnc(N3CCN4CCCCC4C3)c2c1` (stereo not shown) [Production Example 81, 7-methoxy-1-octahydropyrido[1,2-a]pyrazin-2-ylisoquinoline], for which the inhibition at 0.1 µM on human 5-HT1A receptor turned out to be 95.8%; on human 5-HT3 receptor, 74.4%.
Taken in the same sequence, the figures for `CSc1ccc2ccnc(N3CCN4CCC[C@H]4C3)c2c1` [Production Example 82] were 99.3% and 90.3%.
Taken in the same sequence, the figures for `Oc1ccc2ccnc(N3CCN4CCC[C@H]4C3)c2c1` [Production Example 85] were 99.9% and 98.9%.
For `NS(=O)(=O)Oc1ccc2ccnc(N3CCN4CCC[C@H]4C3)c2c1` [Production Example 87], the inhibition at 0.1 µM at human 5-HT1A receptor stood at 96.4%; at human 5-HT3 receptor, 96.9%.
Take `CN1CCN(c2nccc3ccc(N(C)C)cc23)CC1` [Production Example 89, 7-dimethylamino-1-(4-methylpiperazin-1-yl)isoquinoline]: the inhibition at 0.1 µM was 92.1% at human 5-HT1A receptor and 83.5% on human 5-HT3 receptor.
With `Fc1ccc(COc2ccc3ccnc(N4CCNCC4)c3c2)cc1` [Production Example 98, 7-(4-fluorobenzyloxy)-1-piperazin-1-ylisoquinoline], the inhibition at 0.1 µM on human 5-HT1A receptor worked out at 88.2%; at human 5-HT3 receptor it was 60.8%.
Taken in the same sequence, the figures for `c1cc2occc2c(N2CCN3CCC[C@H]3C2)n1` [Production Example 105, 4-((8aS)-octahydropyrrolo[1,2-a]pyrazin-2-yl)furo[3,2-c]pyridine] were 72.7% and 96.4%.
